Experimental data published in patent US9017681B2, “Adenylyl cyclases as novel targets for antibactrial interventions” (Cornell Research Foundation, Inc., priority 2007, dated 2015).
Entries after “also recorded” stand apart in the source; their conditions may differ.

System: endogenous transmembrane adenylyl cyclases
Experiment: cellular cAMP accumulation assay in 293T cells + IBMX + forskolin
Type: cell-based, human
Conditions: 293T cells; 500 μM IBMX and 10 μM forskolin; endogenous tmAC activity; read-out: 293T + FSK
Protocol: (§1) 293T cells or 4-4 cells (hsACt stably transfected into 293T) were grown in 75 cm2 Tissue Culture Flasks until nearly confluent using DMEM (10% FBS, 1% L-Glutamine, 1% Penicillin/Streptomycin). Cells were released from the flask with 3 ml of trypsin followed by addition of 7 ml of DMEM to neutralize the trypsin. Cells were mixed by pipetting up and down with 10 ml serological pipette. To a 3 ml aliquot of the cell mixture, 6 ml of DMEM (prewarmed to 37° C.) was added followed by thorough mixing by picking up the entire 9 mls using a repeat pipettor, and slowly pipetting out against the wall of container. This was repeated this ten times to ensure the mixture in homogenous. 100 μL of cells were then added to each pre-siliconized 1.7 ml Eppindorf tubes (Costar #3207) followed by a 60 min incubation at 37° C. and 5% CO2. This incubation was performed in 20-tube, round, floating racks (VWR #60986-100), which enable a quick transfer of the samples to a water bath, and the ability to mix several samples simultaneously. Following the incubation, 1 μL of the compound in DMSO was added (or just DMSO for controls). The cells were mixed before and after adding the compound, by a brief (and light) vortexing. The compounds were added while the cells were in the 37° C. water bath, followed by a 10 min incubation at 37° C. and 5% CO2. Following this incubation, 1 μL it of IBMX or 1 μL of IBMX+Forskolin was added with Repeat Pipettor. The 4-4 cells receive the IBMX to a final concentration of 500 μM IBMX. The 293T cells receive IBMX and Forskolin to final concentration of 500 μM IBMX and 10 μM, respectively. Both the IBMX mix (for 4-4 cells), and the IBMX/FSK mix (for 293T cells) were 100×, and were dissolved in DMSO. Cells were mixed and incubated at 37° C. and 5% CO2 for 15 min. The assay was stopped by placing the cells in an ice bath. Cells were pelleted by centrifugation at 2000×G for 7 min at 4° C. The supernatant was aspirated and 250 μL of 0.1 N HCl was added to each cell pellet followed by through vortexing for 1 min. Following a 10 min incubation at room temperature, 30 μL of each sample was added to 70 μL of 0.1 N HCl and the cAMP levels were measured using the protocol for the Direct Cyclic AMP Kit (Assay Designs, Inc. #901-066). This 30 μL plus 70 μL of 0.1 N HCl makes up the sample described in step 5 of the Assay Designs' protocol. The samples should lie in the linear range of the assay.

Compound	IC50 [µM]
O=C(CSc1nc2ccccc2[nH]1)NCCc1ccccc1 [KH7.102]	> 500
COc1ccc(/C(C)=N\NC(=O)CSc2nc3ccccc3[nH]2)cc1 [KH7.106]	> 500
C/C(=N\NC(=O)CSc1nc2ccccc2[nH]1)c1ccc(Cl)cc1 [KH7.110]	> 120

The next lines start with the values.

IC50 [µM]	Compound
> 500	COc1cc(/C(C)=N\NC(=O)CSc2nc3ccccc3[nH]2)ccc1O [KH7.114]
> 120	O=C(CSc1nc2ccccc2[nH]1)N/N=C/c1cc(Br)ccc1O [KH7.103]
60	O=C(CSc1nc2ccccc2[nH]1)N/N=C/c1ccc(Cl)cc1Cl [KH7.105]

System: P. aeruginosa CyaB (a Class III adenylyl cyclase)
Experiment: Pseudomonas adenylyl cyclase assay with purified His-CyaB
Type: biochemical, Pseudomonas aeruginosa
Conditions: increasing concentrations of compound, FIG. 1 / FIG. 2
Protocol: (§2) FIG. 1. […] The CyaB was heterologously expressed in E. coli as a poly-histidine tagged fusion protein and purified using a nickel column. Adenylyl cyclase activity was determined by measuring cyclic AMP levels using the Correlate-EIA Direct Cyclic AMP assay kit from Assay Designs as per manufacturers instructions.
as §2, with “2.” for “1.”
P. aeruginosa CyaB (a Class III adenylyl cyclase) was heterologously expressed in E. coli as a HIS-tagged, fusion protein. Expression of the fusion protein was induced by Isopropyl β-D-1-thiogalactopyranoside (IPTG) t at 21° C. (empirically found to be best temperature for expression). The His-CyaB fusion protein was purified using a nickel affinity column according to standard protocols in the absence of any reducing agent. Eluted protein was dialyzed into storage buffer consisting of: 50 mM Tris (pH 8.5), 10 mM NaCl, 2 mM MgCl2, and 25% glycerol.
The purified CyaB was assayed for cyclase activity as follows. […]
(§3) Cyclic AMP levels were measured in each sample using the Correlate-EIA Direct Cyclic AMP assay kit from Assay Designs as per manufacturers instructions.

Compound	effect on CyaB adenylyl cyclase activity
COc1ccc(C2=NN(C(=O)CSc3nc4ccccc4[nH]3)C(c3ccc(F)cc3)C2)cc1 (stereo not drawn) [KH7.120]	activator; also recorded: increase in the activity

Target: T1, human sAC (Homo sapiens, UniProt Q96PN6)
T1 construct: made in house
T1 sequence (Q96PN6 1-469 limits assumed): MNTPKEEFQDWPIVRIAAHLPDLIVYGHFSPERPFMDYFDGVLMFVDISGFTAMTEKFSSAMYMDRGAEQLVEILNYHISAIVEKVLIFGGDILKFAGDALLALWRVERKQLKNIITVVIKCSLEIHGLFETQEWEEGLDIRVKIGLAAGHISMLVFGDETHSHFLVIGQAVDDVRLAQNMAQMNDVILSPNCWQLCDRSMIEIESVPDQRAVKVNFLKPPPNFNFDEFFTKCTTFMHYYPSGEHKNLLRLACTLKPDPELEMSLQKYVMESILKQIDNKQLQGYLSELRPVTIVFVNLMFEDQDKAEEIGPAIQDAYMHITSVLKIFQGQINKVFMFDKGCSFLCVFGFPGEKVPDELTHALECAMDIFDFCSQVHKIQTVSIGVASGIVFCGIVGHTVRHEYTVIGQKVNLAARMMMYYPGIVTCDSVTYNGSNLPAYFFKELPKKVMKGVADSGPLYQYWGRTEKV
Experiment: cellular cAMP accumulation assay in 4-4 cells (hsACt stably transfected into 293T), IBMX
Type: cell-based
Conditions: stable cell line overexpressing human sAC; 500 μM IBMX; read-out: 4-4, Basal approximate IC50 (or the dose range where the IC50 should lie)
Protocol: as §1, with “cells (hsACt” left out, “The 293T cells receive IBMX and Forskolin to final concentration of 500 μM IBMX and 10 μM, respectively.” left out

Compound	IC50 [µM]
O=C(CSc1nc2ccccc2[nH]1)NCCc1ccccc1 [KH7.102]	100
C/C(=N\NC(=O)CSc1nc2ccccc2[nH]1)c1ccc(Cl)cc1 [KH7.110]	30 to 60

The remaining lines, values ahead:

IC50 [µM]	Compound
56 to 167	COc1cc(/C(C)=N\NC(=O)CSc2nc3ccccc3[nH]2)ccc1O [KH7.114]
60 to 120	O=C(CSc1nc2ccccc2[nH]1)N/N=C/c1cc(Br)ccc1O [KH7.103]
15	O=C(CSc1nc2ccccc2[nH]1)N/N=C/c1ccc(Cl)cc1Cl [KH7.105]

Target: T1, human sAC
Experiment: in vitro adenylyl cyclase assay with purified human sAC protein (cAMP by Correlate-EIA)
Type: biochemical
Conditions: 100 μM of compound; BASAL human sAC in vitro activity; read-out: % Inhibition (100 μM), hsACt-Basal
Protocol: Purified human sAC protein was used in an in vitro adenylyl cyclase assay. Purification of the protein is described in detail in Litvin et al. 2003. (J. Biol. Chem. 278:15922-15926). This paper also describes the general conditions for a sAC cyclase assay. The specific conditions for the in vitro assay are as follows.
For basal sAC activity, an assay master mixture with sufficient volume for all reactions was prepared containing:
100 U/ml creatine phosphokinase (CPK)
An aliquot of the master mixture was added to the purified human sAC. The assay mixture also included the indicated concentration of KH compound, or an equivalent volume of vehicle (i.e., DMSO) as control. The reaction was started by adding 5 mM ATP (total assay volume=100 μL). The reaction mixture was incubated at 30° C. for 30 minutes and then stopped by adding 100 μl […]. Stimulated assay conditions involve adding 40 mM bicarbonate and 5 mM CaCl2 to the above master mixture.
as §3

Compound	inhibition at 100 µM [%]
COc1ccc(C2=NN(C(=O)CSc3nc4ccccc4[nH]3)C(c3ccc(F)cc3)C2)cc1 (stereo not drawn) [KH7.120]	90
O=C(CSc1nc2ccccc2[nH]1)NCCc1ccccc1 [KH7.102]	0
C/C(=N\NC(=O)CSc1nc2ccccc2[nH]1)c1ccc(Cl)cc1 [KH7.110]	90

Now from value to compound:

inhibition at 100 µM [%]	Compound
0	COc1cc(/C(C)=N\NC(=O)CSc2nc3ccccc3[nH]2)ccc1O [KH7.114]
100	O=C(CSc1nc2ccccc2[nH]1)N/N=C/c1cc(Br)ccc1O [KH7.103]
90	O=C(CSc1nc2ccccc2[nH]1)N/N=C/c1ccc(Cl)cc1Cl [KH7.105]

Same assay, conditions: 100 μM of compound; stimulated human sAC in vitro activity; read-out: % Inhibition (100 μM), hsACt-Stim.

Compound	inhibition at 100 µM [%]
COc1ccc(C2=NN(C(=O)CSc3nc4ccccc4[nH]3)C(c3ccc(F)cc3)C2)cc1 (stereo not drawn) [KH7.120]	90
O=C(CSc1nc2ccccc2[nH]1)NCCc1ccccc1 [KH7.102]	0
C/C(=N\NC(=O)CSc1nc2ccccc2[nH]1)c1ccc(Cl)cc1 [KH7.110]	90

Further lines, results first:

inhibition at 100 µM [%]	Compound
0	COc1cc(/C(C)=N\NC(=O)CSc2nc3ccccc3[nH]2)ccc1O [KH7.114]
100	O=C(CSc1nc2ccccc2[nH]1)N/N=C/c1cc(Br)ccc1O [KH7.103]
90	O=C(CSc1nc2ccccc2[nH]1)N/N=C/c1ccc(Cl)cc1Cl [KH7.105]

Same assay, conditions: BASAL activity of human sAC in vitro (just Mg-ATP, no calcium or bicarbonate); read-out: hsACt-Basal approximate IC50 (or the dose range where the IC50 should lie)

Compound	IC50 [µM]
COc1ccc(C2=NN(C(=O)CSc3nc4ccccc4[nH]3)C(c3ccc(F)cc3)C2)cc1 (stereo not drawn) [KH7.120]	10 to 100
O=C(CSc1nc2ccccc2[nH]1)NCCc1ccccc1 [KH7.102]	> 100
C/C(=N\NC(=O)CSc1nc2ccccc2[nH]1)c1ccc(Cl)cc1 [KH7.110]	10 to 100

Second part, the compound after the results:

IC50 [µM]	Compound
> 100	COc1cc(/C(C)=N\NC(=O)CSc2nc3ccccc3[nH]2)ccc1O [KH7.114]
10 to 100	O=C(CSc1nc2ccccc2[nH]1)N/N=C/c1cc(Br)ccc1O [KH7.103]
10 to 100	O=C(CSc1nc2ccccc2[nH]1)N/N=C/c1ccc(Cl)cc1Cl [KH7.105]

Same assay, conditions: stimulated activity of human sAC in vitro (calcium and bicarbonate stimulated); read-out: hsACt-Stim. approximate IC50 (or the dose range where the IC50 should lie)

Compound	IC50 [µM]
COc1ccc(C2=NN(C(=O)CSc3nc4ccccc4[nH]3)C(c3ccc(F)cc3)C2)cc1 (stereo not drawn) [KH7.120]	10 to 100
O=C(CSc1nc2ccccc2[nH]1)NCCc1ccccc1 [KH7.102]	> 100
C/C(=N\NC(=O)CSc1nc2ccccc2[nH]1)c1ccc(Cl)cc1 [KH7.110]	10 to 100

Now from value to compound:

IC50 [µM]	Compound
> 100	COc1cc(/C(C)=N\NC(=O)CSc2nc3ccccc3[nH]2)ccc1O [KH7.114]
10 to 100	O=C(CSc1nc2ccccc2[nH]1)N/N=C/c1cc(Br)ccc1O [KH7.103]
10 to 100	O=C(CSc1nc2ccccc2[nH]1)N/N=C/c1ccc(Cl)cc1Cl [KH7.105]
